Reference: patent US9670211B2, “Aza-oxo-indoles for the treatment and prophylaxis of respiratory syncytial virus infection” (Hoffmann-La Roche Inc., priority 2013, dated 2017)
pEC50: −log10 of the molar value.

Test system: RSV Long strain
Test: Viral Cytopathic Effect (CPE) Assay
Format: cell-based
Details: human respiratory syncytial virus, 144 h; RSV Long strain (ATCC), cell viability after 6 days by Cell Counting kit-8
Procedure: Viral Cytopathic Effect (CPE) Assay
To measure anti-RSV activity of compounds, 96-well plates are seeded with 6×10^3 cells per well in Dulbecco's modified Eagle's medium (DMEM) containing 10% fetal bovine serum (FBS). Cells are infected the next day with sufficient RSV Long strain (ATCC) to produce an approximately 80-90% cytopathic effect after 6 days, in the presence of serial half-log diluted compound in a total volume of 200 μL per well. The viability of cells is assessed after 6 days using Cell Counting kit-8 (Dojindo Molecular Technologies). The absorbance at 450 nm and referenced at 630 nm is measured to determine 50% effective concentration (EC50).

pEC50	Molecule
8.22	CN1CC(n2c(CN3C(=O)C4(CC4)c4ccncc43)nc3cc(Cl)ccc32)CC1=O (centres unmarked) [Example 8-1, 1′-{[5-Chloro-1-(1-methyl-5-oxopyrrolidin-3-yl)-1H-benzimidazol-2-yl]methyl}spiro[cyclopropane-1,3′-pyrrolo[2,3-c]pyridin]-2′(1′H)-one]
9.10	O=C1N(Cc2nc3cc(Cl)ccc3n2[C@H]2C[C@H](O)C2)c2cnccc2C12CC2 [Example 14-2, 1′-{[5-Chloro-1-(trans-3-hydroxycyclobutyl)-1H-benzimidazol-2-yl]methyl}spiro[cyclopropane-1,3′-pyrrolo[2,3-c]pyridin]-2′(1′H)-one]
8.70	O=C1CCC(n2c(CN3C(=O)C4(CC4)c4ccncc43)nc3cc(Cl)ccc32)CN1 (centres unmarked) [Example 7-1, 1′-{[5-Chloro-1-(6-oxopiperidin-3-yl)-1H-benzimidazol-2-yl]methyl}spiro[cyclopropane-1,3′-pyrrolo[2,3-c]pyridin]-2′(1′H)-one]
7.02	CC1(C)C(=O)N(Cc2nc3cc(Cl)ccc3n2C2CS(=O)(=O)C2)c2cnccc21 [Example 4-2, 1-{[5-Chloro-1-(1,1-dioxidothietan-3-yl)-1H-benzimidazol-2-yl]methyl}-3,3-dimethyl-1,3-dihydro-2H-pyrrolo[2,3-c]pyridin-2-one]
8.00	O=C1N(Cc2nc3cc(Cl)ccc3n2[C@H]2CCS(=O)(=O)C2)c2cnccc2C12CC2 [Example 3-2, 1′-({5-Chloro-1-[(3S)-1,1-dioxidotetrahydrothiophen-3-yl]-1H-benzimidazol-2-yl}methyl)spiro[cyclopropane-1,3′-pyrrolo[2,3-c]pyridin]-2′(1′H)-one]
8.05	O=C1CC(n2c(CN3C(=O)C4(CC4)c4ccncc43)nc3cc(Cl)ccc32)CN1 (centres unmarked) [Example 7-2, 1′-{[5-Chloro-1-(5-oxopyrrolidin-3-yl)-1H-benzimidazol-2-yl]methyl}spiro[cyclopropane-1,3′-pyrrolo[2,3-c]pyridin]-2′(1′H)-one]

More lines, now with the values behind:

Molecule	pEC50
O=C1N(Cc2nc3cc(Cl)ccc3n2C2CNC3(COC3)C2)c2cnccc2C12CC2 (centres unmarked) [Example 16, 1′-{[5-Chloro-1-(2-oxa-5-azaspiro[3.4]oct-7-yl)-1H-benzimidazol-2-yl]methyl}spiro[cyclopropane-1,3′-pyrrolo[2,3-c]pyridin]-2′(1′H)-one]	8.66
O=C1N(Cc2cc3cc(Cl)ccc3n2C2CCS(=O)(=O)C2)c2cnccc2C12CC2 (centres unmarked) [Example 18, 1′-{[5-Chloro-1-(1,1-dioxidotetrahydrothiophen-3-yl)-1H-indol-2-yl]methyl}spiro[cyclopropane-1,3′-pyrrolo[2,3-c]pyridin]-2′(1′H)-one]	8.72
CC(C)C(=O)N1CC[C@@H](n2c(CN3C(=O)C4(CC4)c4ccncc43)nc3cc(Cl)ccc32)C1 [Example 11, 1′-({5-Chloro-1-[(3R)-1-(2-methylpropanoyl)pyrrolidin-3-yl]-1H-benzimidazol-2-yl}methyl)spiro[cyclopropane-1,3′-pyrrolo[2,3-c]pyridin]-2′(1′H)-one]	8.52
O=C1N(Cc2nc3cc(Cl)ccc3n2C2CCC(F)(F)C2)c2cnccc2C12CC2 (centres unmarked) [Example 2-11, 1′-{[5-Chloro-1-(3,3-difluorocyclopentyl)-1H-benzimidazol-2-yl]methyl}spiro[cyclopropane-1,3′-pyrrolo[2,3-c]pyridin]-2′(1′H)-one]	7.77
O=C1N(Cc2nc3cc(Cl)ccc3n2[C@H]2CC[C@@H](C(=O)O)CC2)c2cnccc2C12CC2 [Example 2-12, cis-4-{5-Chloro-2-[(2′-oxospiro[cyclopropane-1,3′-pyrrolo[2,3-c]pyridin]-1′(2′H)-yl)methyl]-1H-benzimidazol-1-yl}cyclohexanecarboxylic acid]	6.29
O=C1N(Cc2nc3cc(Cl)ccc3n2C2CCOCC2)c2cnccc2C12CC2 [Example 2-6, 1′-{[5-Chloro-1-(tetrahydro-2H-pyran-4-yl)-1H-benzimidazol-2-yl]methyl}spiro[cyclopropane-1,3′-pyrrolo[2,3-c]pyridin]-2′(1′H)-one]	7.64
O=C1N(Cc2cc3cc(Cl)cc(F)c3n2C2CCS(=O)(=O)C2)c2cnccc2C12CC2 (centres unmarked) [Example 17, 1′-{[5-Chloro-1-(1,1-dioxidotetrahydrothiophen-3-yl)-7-fluoro-1H-indol-2-yl]methyl}spiro[cyclopropane-1,3′-pyrrolo[2,3-c]pyridin]-2′(1′H)-one]	9.22
O=C1N(Cc2nc3cc(Cl)ccc3n2C2CCOC2)c2cnccc2C12CC2 (centres unmarked) [Example 2-14, 1′-{[5-Chloro-1-(tetrahydrofuran-3-yl)-1H-benzimidazol-2-yl]methyl}spiro[cyclopropane-1,3′-pyrrolo[2,3-c]pyridin]-2′(1′H)-one]	8.22
O=C1N(Cc2nc3cc(Cl)cnc3n2C2CCS(=O)(=O)C2)c2cnccc2C12CC2 (centres unmarked) [Example 2-13, 1′-{[6-Chloro-3-(1,1-dioxidotetrahydrothiophen-3-yl)-3H-imidazo[4,5-b]pyridin-2-yl]methyl}spiro[cyclopropane-1,3′-pyrrolo[2,3-c]pyridin]-2′(1′H)-one]	7.82
O=C1N(Cc2nc3cc(Cl)cc(F)c3n2C2CS(=O)(=O)C2)c2cnccc2C12CC2 [Example 6, 1′-{[5-Chloro-1-(1,1-dioxidothietan-3-yl)-7-fluoro-1H-benzimidazol-2-yl]methyl}spiro[cyclopropane-1,3′-pyrrolo[2,3-c]pyridin]-2′(1′H)-one]	9.05

Test system: RSV infection
Test: not given
Details: intramuscularly at 15 mg/kg once a month for the duration of RSV season, selected infants; cited from earlier work

Molecule	reduction of hospitalization rate caused by RSV infection
palivizumab: humanized monoclonal antibody against RSV fusion (F) protein approved for prophylaxis in high-risk infants	45-55%
